Measurements: patent US6462171B1, “Peptides and pharmaceutical compositions thereof for treatment of disorders or diseases associated with abnormal protein folding into amyloid or amyloid-like deposits” (New York University, priority 1995, dated 2002)
Several values for one entry are separate records, joined by “and”; a condition that tells them apart may be missing. Equal entries are not always repeated. Where two headings read alike, the source gives them in different places.

Tests used:
Aβ1-40 [1] = experiment: Negative-staining electron microscopy of Aβ1-40 fibril formation and dissolution; format: biochemical; conditions: for effect on Aβ1-40 fibril formation by electron microscopy: Aβ1-40 2 mg/ml, 40-fold excess from the start, 6 days, 37° C.
Chain of Aβ1-40 (P05067 18-40): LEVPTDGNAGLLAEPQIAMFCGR

[2] = Aggregation of the peptide incubated alone; format: physicochemical; conditions: for amyloid-like material formed by the peptide alone, electron microscopy: 6 days, same concentration as with Aβ
Experimental: Based on these criteria, an 11 amino acid peptide, called inhibitor of Aβ fibrillogenesis peptide (iAβ) was designed, which has a low probability of adopting a β-sheet conformation due to the presence of proline residues (FIG. 9). The circular dichroism spectrum of iAβ in aqueous solution was typical of unordered structures (FIG. 10). Samples of iAβ at different concentrations as well as samples incubated for several days have similar spectra (FIG. 10).
The inhibition of fibril formation and the dissolution of preformed fibrils by iAβ was also analyzed by negative-staining electron microscopy (FIGS. 15a -f). Aβ1-40 (2 mg/ml) preincubated for 6 days at 37° C. formed typical 8-10 nm unbranched fibrils (Castano et al., biochem. Biophys. Res. Commun. 141:782-789, 1986) (FIG. 15a).

Aβ1-42 = Aβ1-42 (Homo sapiens, UniProt P05067); experiment: Thioflavine T fluorometric assay of amyloid formation by Aβ1-42; format: biochemical; conditions: for % of amyloid Aβ1-42: amyloid remaining, 30 μg Aβ with 10-fold molar excess of peptide, 2 days, room temperature, 0.1M tris pH 7.6, Aβ alone = 100
Chain of Aβ1-42 (P05067 18-42): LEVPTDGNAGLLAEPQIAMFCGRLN

Aβ1-40 [3] = experiment: Thioflavine T fluorometric assay of amyloid formation by Aβ1-40; format: biochemical; conditions: for % of amyloid Aβ1-40: amyloid remaining, 30 μg Aβ with 10-fold molar excess of peptide, 2 days, room temperature, 0.1M tris pH 7.6, Aβ alone = 100; for amyloid formed, as % of the amyloid detectable in the absence of inhibitor: 24 h, Aβ 1 mg/ml
[4] = background art; cited from earlier work
[5] = Kisilevsky et al., 1995; cited from earlier work
PrP106-126 = PrP106-126 (Homo sapiens, UniProt P04156); conditions: same concentration as iPrP-12aa
Aβ1-40 [6] = experiment: Aβ-iAβ binding by quenching of intrinsic Tyr10 fluorescence of Aβ
Aβ1-40 fibrils = Aβ1-40 fibrils (Homo sapiens, UniProt P05067); experiment: Dissolution of preformed Aβ1-40 fibrils, fluorometric quantitation; format: biochemical
Chain of Aβ1-40 fibrils (P05067 672-711): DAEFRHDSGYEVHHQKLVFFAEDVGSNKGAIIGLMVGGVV

[7] = test system: amyloid-A (AA) deposition; experiment: Experimental murine model of amyloid-A amyloidosis (AEF and silver nitrate), amyloid in spleen; format: in vivo, BALB/c mice
[8] = target: Aβ with heparan-sulfate proteoglycan (Homo sapiens, UniProt P05067); experiment: Heparan-sulfate proteoglycan-induced Aβ fibrillogenesis; format: biochemical; conditions: preliminary experiments
Chain of Aβ with heparan-sulfate proteoglycan (P05067 672-711 limits assumed): as the sequence (P05067 672-711) above

[9] = target: T1, Aβ1-40 with human plasma apolipoprotein E (Homo sapiens, UniProt P05067); experiment: Promotion of Aβ fibrillogenesis induced by apolipoprotein E, thioflavine T assay; format: biochemical; conditions: 30 μg Aβ1-40, 2.4 μg apoE, 1:10 (Aβ:iAβ), 24 h, room temperature
T1 construct: 30 μg of Aβ1-40 were incubated with or without 2.4 μg of human plasma apolipoprotein E; made in house; host or cells: Aβ1-40: chemical solid-phase synthesis
Experimental: Samples of Aβ alone or Aβ/apoE were incubated also with 1:10 (Aβ:iAβ) of the inhibitor. All the incubations were performed for 24 h at room temperature. Amyloid formation was evaluated by the thioflavine T fluorometric assay. The average of two different experiments is shown.

Aβ1-42 fibrils = Aβ1-42 fibrils (Homo sapiens, UniProt P05067); experiment: Dissolution of preformed Aβ1-42 fibrils, fluorometric quantitation; format: biochemical; conditions: 40-fold molar excess of iAβ, 24 h incubation
[10] = test system: amyloid A (SEQ ID NO: 13); experiment: Fibril formation by the amyloidogenic peptide of amyloid A; format: biochemical; conditions: 1 mg/ml, 24 hours, molar ratio 1:5 or 1:20
Experimental: (§1) FIG. 8 is a bar graph showing the effect of anti-amyloid peptide 1 on the amyloid formation by Aβ and of peptides derived from the amyloidogenic sequence of gelsolin amyloid and amyloid A. Either β or the fifteen amino acid peptides containing the amyloidogenic sequence of gelsolin amyloid (SEQ ID NO: 12) and amyloid A (SEQ ID NO: 13) were incubated in a concentration of 1 mg/ml for 24 hours without and with anti-amyloid peptide 1 in a molar ratio of 1:5 or 1:20.

Aβ [11] = target: T2, Aβ (Homo sapiens, UniProt P05067); experiment: Aβ amyloid fibril formation in vitro (Aβ variant not named); format: biochemical; conditions: 50-fold molar excess over soluble amyloid monomers
T2 sequence (P05067 672-711 limits assumed): as the sequence (P05067 672-711) above

[12] = test system: gelsolin amyloid (SEQ ID NO: 12); experiment: Fibril formation by the amyloidogenic peptide of gelsolin amyloid; format: biochemical; conditions: 1 mg/ml, 24 hours, molar ratio 1:5 or 1:20
Experimental: as §1

Aβ [13] = target: T2, Aβ; experiment: Redissolution of preformed Aβ fibrils by anti-amyloid peptide 1; format: biochemical; conditions: molar ratio 1:50 (Aβ:anti-amyloid peptide 1), 15 minutes to 24 hours

In the case of “control peptide: 12 residue non-related control peptide (VHVSEEGTEPEA) [reference compound]”, the “effect on Aβ1-40 fibril formation by electron microscopy” value (Aβ1-40 [1]) is reported as “did not produce any effect”, the “amyloid-like material formed by the peptide alone, electron microscopy” value [2] is reported as “formed no amyloid-like material” and the “effect on amyloid formation by Aβ1-42” value (Aβ1-42; FIG. 12) is reported as “did not alter amyloid formation”. For the same molecule, the “effect on amyloid formation by Aβ1-40” value (Aβ1-40 [3]; FIGS. 12 and 13) was “did not alter amyloid formation”.
With Pro-Phe-Phe [iAβ6] the “% of amyloid Aβ1-42” value (Aβ1-42) was 88.9 ± 2.6% and the “% of amyloid Aβ1-40” value (Aβ1-40 [3]) was 108.1 ± 7.9%.
With “iAβ1: shorter derivative of iAβ (RDLPFFPVD)” the “% of amyloid Aβ1-42” value (Aβ1-42) was 85.7 ± 11.6% and the “% of amyloid Aβ1-40” value (Aβ1-40 [3]) was 55.2 ± 2.1%.
For `COc1cccc2c1C(=O)c1c(O)c3c(c(O)c1C2=O)C[C@@](O)(C(=O)CO)C[C@@H]3O[C@H]1C[C@H](N)[C@H](I)[C@H](C)O1` [IDOX, Anthracycline 4′-iodo-4′-deoxy-doxorubicin], the “toxicity” value [4] is listed as “extremely toxic”.
With “iAβ4: five residue derivative of iAβ; proline substituted for valine of Aβ 17-21, aspartic acid at the end (LPFFD)” the “% of amyloid Aβ1-42” value (Aβ1-42) was 45.4 ± 0.6% and the “% of amyloid Aβ1-40” value (Aβ1-40 [3]) was 28.7 ± 1.7%.
For “CP2: control peptide (GYLTVAAVFRG) [reference compound]”, the “% of amyloid Aβ1-42” value (Aβ1-42) was 125.3 ± 3.9% and the “% of amyloid Aβ1-40” value (Aβ1-40 [3]) was 111.3 ± 4.1%.
For “iAβ2: seven amino acid residue shorter derivative of iAβ (LPFFPVD)”, the “% of amyloid Aβ1-42” value (Aβ1-42) was 61.3 ± 3.0% and the “% of amyloid Aβ1-40” value (Aβ1-40 [3]) was 36.7 ± 4.8%.
For poly- (vinylsulfonate), the “toxicity” value [5] is given as “acutely toxic”.
For “iAβ3: shorter derivative of iAβ; valine inserted into the sequence of SEQ ID NO:18 (LPFFVD)”, the “% of amyloid Aβ1-42” value (Aβ1-42) was 87.1 ± 6.1% and the “% of amyloid Aβ1-40” value (Aβ1-40 [3]) was 90.1 ± 1.3%.
For “CP1: unrelated control peptide of 12 amino acids (VHVSEEGTEPA) [reference compound]”, the “% of amyloid Aβ1-42” value (Aβ1-42) was 101.3 ± 1.9%, the “% of amyloid Aβ1-40” value (Aβ1-40 [3]) was 98.4 ± 1.2% and the “effect on amyloid formation by PrP106-126” value (PrP106-126) was “No significant effect”.
In the case of “iAβ: 11 amino acid peptide partially homologous to Aβ residues 17-21, with proline residues and charged ends (RDLPFFPVPID)”, the “maximum quenching of Aβ fluorescence, % of total fluorescence” value (Aβ1-40 [6]; at approximately 4 μM of iAβ, 25° C., 5 mM Tris pH 7.4) is reported as 12.6%, the Kd (Aβ1-40 [6]; non-linear regression of binding data to a rectangular hyperbola, read-out: relative dissociation constant) is reported as 75.9 ± 6.5 nM and the “effect on Aβ1-40 fibril formation by electron microscopy” value (Aβ1-40 [1]) is reported as “only amorphous aggregates were obtained”. The “dissolution of preformed Aβ1-40 fibrils by electron microscopy” value (Aβ1-40 [1]; fibrils preformed 6 days at 37° C., then 2 days with 1:40 molar ratio Aβ:iAβ) was “almost completely dissolved”, the “amyloid-like material formed by the peptide alone, electron microscopy” value [2] was “formed no amyloid-like material” and the “aggregation of the peptide” value ([2]; even at high concentrations (4 mg/ml) or after more than 30 days of incubation) was “did not aggregate”. The “incubation time to maximum level of fibril dissolution” value (Aβ1-40 fibrils; 40-fold molar excess of iAβ (FIG. 14B), Aβ variant not stated) was 2 days, the “dissolution of preformed Aβ1-40 fibrils” value (Aβ1-40 fibrils; 40-fold molar excess of iAβ, 24 h incubation) was “almost complete dissolution” and the “inhibition of amyloid formation” value (Aβ1-42; 5-fold molar excess of iAβ over Aβ1-42, 24 h) was 28.7%. For the same molecule, the “inhibition of amyloid formation” value (Aβ1-42; 20-fold molar excess of iAβ over Aβ1-42, 24 h) was 72.3%, the “inhibition of amyloid formation” value (Aβ1-42; 40-fold molar excess of iAβ over Aβ1-42, 24 h) was 80.6% and the “% of amyloid Aβ1-42” value (Aβ1-42) was 57.9 ± 1.3%. The “decrease of the area occupied by amyloid in the spleen versus animals treated without the inhibitor” value ([7]; 5 mg iAβ injected together with AEF after 24 h preincubation, 5 days) was “approximately 86.4%”, the “amyloid in spleen by image analysis, AEF/SN + iAβ, single animal” value ([7]; AEF 100 μg preincubated 24 h with 5 mg peptide, sacrificed at 5 days, AEF/SN alone average 31.2) was 4.35 and 3.68 and 5.32 and 3.67 and the “amyloid in spleen by image analysis, AEF/SN + iAβ, Average ± SE” value ([7]; four animals, AEF 100 μg preincubated 24 h with 5 mg peptide, 5 days, AEF/SN alone 31.2 ± 0.75) was 4.26 ± 0.39. For the same molecule, the “effect on heparan-sulfate proteoglycan-induced Aβ fibrillogenesis” value [8] was “blocked”, the “effect on apo E-induced promotion of Aβ fibrillogenesis” value [9] was “blocked the promotion of Aβ fibrillogenesis” and the “amyloid formed, as % of the amyloid detectable in the absence of inhibitor” value (Aβ1-40 [3]; 5-fold molar excess of iAβ) was 33.9%. The “amyloid formed, as % of the amyloid detectable in the absence of inhibitor” value (Aβ1-40 [3]; 20-fold molar excess of iAβ) was 13.7%, the “% of amyloid Aβ1-40” value (Aβ1-40 [3]) was 25.5 ± 0.7% and the Aβ1-42 fibril reduction (Aβ1-42 fibrils) was 51%.
For “Leu Val Phe Phe Ala [Aβ17-21, reference compound]”, the “% of amyloid Aβ1-42” value (Aβ1-42) was 92.3 ± 3.4% and the “% of amyloid Aβ1-40” value (Aβ1-40 [3]) was 89.2 ± 2.7%.
For “CP3: control peptide (PADVPLAPRAVD) [reference compound]”, the “% of amyloid Aβ1-42” value (Aβ1-42) was 94.4 ± 1.4% and the “% of amyloid Aβ1-40” value (Aβ1-40 [3]) was 87.7 ± 2.0%.
In the case of iAβ5: shorter derivative of iAβ (LPFF), the “% of amyloid Aβ1-42” value (Aβ1-42) is reported as 82.4 ± 5.0% and the “% of amyloid Aβ1-40” value (Aβ1-40 [3]) is reported as 92.1 ± 1.3%.
In the case of “anti-amyloid peptide 1: 15-amino acid anti-amyloid peptide (SRGDLPFFPVPIGDS)”, the “inhibition of fibril formation of the amyloid-A peptide” value [10] is reported as “inhibits the fibril formation”, the “inhibition of amyloid fibril formation” value (Aβ [11]) is reported as 90% and the “inhibition of fibril formation of the gelsolin related amyloid peptide” value [12] is reported as “inhibits the fibril formation”. For the same molecule, the “dissolution of preformed Aβ fibrils” value (Aβ [13]) was “Dissolution of preformed fibrils also occurred”.
For “Aβ18-21: short Aβ fragment (VFFA) [reference compound]”, the “% of amyloid Aβ1-42” value (Aβ1-42) was 98.5 ± 5.3% and the “% of amyloid Aβ1-40” value (Aβ1-40 [3]) was 105 ± 3.2%.
